Laboratory results taken from US20230285353A1, “A CHEMICAL COCKTAIL DRIVING EXPANSION OF MYOGENIC STEM CELLS” (The Regents of the University of California, priority 2020, published 2023).

Test system: neonatal dermal fibroblast-like cells
Assay: Screening small-molecules for myogenic induction (TnT+ cells)
Format: cell-based, mouse
Conditions: for induction of myogenic cells, factor added individually to FR: basic medium with 20 μM F and R, bFGF 50 ng/ml or AA 50 μg/ml
Experimental: The next day the original medium was replaced with a screening medium containing small-molecule cocktails: KnockOut DMEM (Thermo Fisher Scientific), 10% knockout serum replacement (Thermo Fisher Scientific), 10% FBS (Hyclone, Inc.), 2 mM GlutaMAX (Thermo Fisher Scientific), 1% nonessential amino acids (Thermo Fisher Scientific), 1% penicillin-streptomycin (Thermo Fisher Scientific) and 20 ng/ml bFGF (Stemgent) containing the various small molecules, including valproic acid ([…]), tranylcypromine (T, 5 μM), forskolin (F, 10 μM), and 5-aza-2'deoxycytidine (5-Aza) (5-aza, 5 μM). The medium was changed once every 2-3 days. After optimizing the cocktail of small molecules and concentrations, the screening medium was replaced with Fb medium for further screening of additional candidates that may improve myogenic efficiency, including ascorbic acid (50 μg/ml, Sigma), BMP4 (20 ng/ml, Stemgent), Insulin (10 μg/ml, Stemgent), IGF-1 (50 ng/ml, R&D Systems), PDGF (50 ng/ml, R&D Systems), and bFGF (50 ng/ml, Stemgent Inc.). For cell immunostaining, cells were fixed in 4% paraformaldehyde for 15 minutes and permeabilized with 0.5% Triton-X 100 in PBS for 15 minutes. Cells were then blocked with 5% donkey serum for 1 hour and incubated overnight at 4° C. with primary antibodies (diluted in 5% donkey serum), including TnT (mouse mAb, DSHB), Myh1E (MF 20, mouse mAb, DSHB), Myh2 (SC-71, mouse mAb, DSHB), Myh3 (F1.652, mouse mAb, DSHB), Myh4 (BF-F3, mouse mAb, DSHB), Myh7 (BA-D5, mouse mAb, DSHB), Myh8 (Rabbit pAb, Thermo Fisher Scientific, PA5-72846), […]7) (dystrophin, mouse mAb, DSHB), MyoD (mouse mAb, DSHB), MyoG (mouse mAb, DSHB), Pax7 (mouse mAb, DSHB), Sox 10 (goat pAb, R&D Systems, AF2864), Ki 67 (rabbit mAb, Abcam, ab16667), FSP1 (rabbit mAb, Sigma, 07-2274), CD 90.2-FITC (rat mAb, Thermo Fisher Scientific, 11-0903-81), P75 (rabbit pAb, Abcam, ab8874) and PDGFR-α (rat mAb, Thermo Fisher Scientific, 13-1401-82). Then appropriate Alexa Fluor 488- or Alexa Fluor 546- or Alexa Fluor 647-conjugated secondary antibodies (Thermo Fisher Scientific) were used for 1 hour at room temperature.

Compound	induction of myogenic cells, factor added individually to FR	other results
Nc1ncn([C@H]2C[C@H](O)[C@@H](CO)O2)c(=O)n1 [5-Aza, 5-aza-2′deoxycytidine]		induction of TnT+ cells (5-Aza treatment of dermal cells): did not show any significant induction
O=C1O[C@H]([C@@H](O)CO)C(O)=C1O [AA, ascorbic acid]	significantly enhanced	
Cc1cccc(-c2[nH]ncc2-c2ccc3ncccc3n2)n1 [R, RepSox]		efficiency of CiMC expansion from dermal cells with single agent (F or R alone): almost negligible
basic fibroblast growth factor [bFGF]	significantly enhanced	
